# Results as given in PMC165585 (BMC Structural Biology, 2003).
# Columns and labels:
# [1] = biological target: T1, LysU (heat-inducible Escherichia coli lysyl-tRNA synthetase) (Escherichia coli, UniProt P0A8N5); assay: isothermal titration calorimetry; assay type: binding
# T1 sequence (P0A8N5 2-505): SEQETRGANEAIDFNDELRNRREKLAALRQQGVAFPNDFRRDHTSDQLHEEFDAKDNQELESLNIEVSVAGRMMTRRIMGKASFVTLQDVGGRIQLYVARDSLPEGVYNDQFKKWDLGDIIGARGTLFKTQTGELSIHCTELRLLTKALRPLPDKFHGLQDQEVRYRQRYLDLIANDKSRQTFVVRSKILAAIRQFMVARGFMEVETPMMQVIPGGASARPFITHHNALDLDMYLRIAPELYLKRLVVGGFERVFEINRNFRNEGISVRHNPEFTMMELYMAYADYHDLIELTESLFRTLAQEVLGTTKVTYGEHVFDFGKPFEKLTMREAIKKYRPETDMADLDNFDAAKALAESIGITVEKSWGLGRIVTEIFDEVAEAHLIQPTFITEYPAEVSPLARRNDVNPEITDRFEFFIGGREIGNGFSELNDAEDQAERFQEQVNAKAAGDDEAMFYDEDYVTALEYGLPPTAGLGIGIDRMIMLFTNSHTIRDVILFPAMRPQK
# [2] = biological target: T1, LysU (heat-inducible Escherichia coli lysyl-tRNA synthetase); assay: biochemical
structure (smiles),measurement,setting,value
"Nc1ncnc2c1ncn2[C@@H]1O[C@H](COP(=O)(O)OP(=O)(O)CP(=O)(O)O)[C@@H](O)[C@H]1O [AMPPCP, β,γ-methyleneadenosine 5'-triphosphate]",Kd,[1],1.22 ± 0.15 µM
NCCCC[C@H](N)C(=O)O [lysine],Kd,[2],7.96 ± 1.4 µM
